The assay has as its system C57BL/6 and p47phox-/- mice infected intranasally with A. fumigatus conidia. The assay is described as follows: Lung inflammation model: C57BL/6 and p47phox-/- mice infected intranasally with A. fumigatus. It counts as in vivo. The protocol: In vivo models mimicking human pathology such as lung and gut inflammation were prepared. A model of lung inflammation was tested using C57BL/6 and p47phox-/- mice. The mice were infected with A. fumigatus intranasally and treated them with Tβ4 for 7 consecutive days starting a week after the infection. LC3-II (FIG. 1F) and DAPK1 (FIG. 1G) expression were both defective in p47phox-/- mice, but restored by Tβ4 and ablated (LC3-II) upon siTβ4 (FIGS. 10A and 10B). In addition, gut inflammation was tested using the same mouse model. Acute colitis in p47phox-/- mice was initiated by administering […] in drinking water for 7 days followed by 7 days of DSS-free autoclaved water. Subsequently, Tβ4 was therapeutically administered daily for 7 days, after DSS treatment, at the time at which mice started to lose weight. Consistent with previous findings (de Luca et al., 2014), LC3-II (FIG. 1H) and DAPK1 (FIG. 1I) expression were both defective in the colon ofp47phox-/- mice with colitis as opposed to WT mice but restored upon treatment with T134 (FIGS. 1H and 1I). DAPK1 expression in colon lysates of C57BL/6 and p47^phox-/- mice subjected to DSS-induced colitis for a week and treated intraperitoneally with 5 mg/kg Tβ4 for 7 consecutive days after DSS treatment, n=6-10 mice per group. Data are presented as mean ±SD and are representative of two experiments. Mice were categorized as Naive (uninfected or untreated mice) or None (infected mice). For immunoblotting, normalization was performed on mouse β-actin or Gapdh and corresponding pixel density or ratio is depicted. For immunofluorescence, nuclei were counterstained with DAPI. Photographs were taken with a high-resolution microscope (Olympus BX51), 40× and 100× magnification. LC3 mean fluorescence intensity (MFI) was measured with the ImageJ software. In FIGS. 1F-1H, n=6-10 mice per group. Data are presented as mean ±SD and are representative of two experiments. Naïve, uninfected or untreated mice. None, infected mice.
Viable conidia from the A. fumigatus Af293 strain were obtained as described (De Luca et al., 2012). Mice were anesthetized in a plastic cage by inhalation of 3% isoflurane (Forane Abbot) in oxygen before intranasal instillation of 2×10^7 resting conidia/20 μl saline. For survival curves, p47^phox-/- mice were challenged with […] conidia/20 μl saline. Tβ4 was administered intraperitoneally (i.p.) at the dose of 5 mg/kg at an effective dose as described (Badamchian et al., Thymosin beta(4) reduces lethality and down-regulates inflammatory mediators in endotoxin-induced septic shock. Int Immunopharmacol, 2003 3(8): p. 1225-33), every day in concomitance with (days 0→7) or after (days 7→14) infection. DMOG (Merck Millipore) was administered i.p. at the dose of 8 mg/mouse concomitantly to the infection. For Hif1a silencing, each mouse received intranasal administration of 10 mg/kg unmodified siRNA [Duplex name mm.Ri.Hif1a.13.1 (IDT); 5′-[…]-3′; 3′-[…] -5′] and Tmsb4x silencing [Duplex name mm.Ri.Tmsb4x.13.1; 5′-[…]-3′; 3′-[…] -5′], or equivalent dose of nonspecific control siRNA duplex in a volume of 20 μl of duplex buffer (IDT). Intranasal siRNA was given once the day before infection and 1, 3 and 5 days after infection (Iannitti et al., 2013 Hypoxia promotes danger-mediated inflammation via receptor for advanced glycation end products in cystic fibrosis. Am J Respir Crit Care Med 188:1338-1350). It is known that lung-specific siRNA delivery can be achieved by intranasal administration without the use of viral vectors or transfection agents in vivo (Iannitti et al., 2013 Th17/Treg imbalance in murine cystic fibrosis is linked to indoleamine 2,3-dioxygenase deficiency but corrected by kynurenines. Am J Respir Crit Care Med 187:609-620). Mice were sacrificed 7 or 14 days post infection. Fungal burden was determined by qPCR and expressed as conidial equivalents (CE). Lung tissue was aseptically removed and homogenized in 3 ml of sterile saline. […]

Where [1] appears, read: following Tβ4 treatment, thoracic lymph nodes, lung homogenates.
Where [2] appears, read: lung homogenates, ELISA (FIG. 4E).

As for Thymosin β4 [Tβ4], where the note is “CGD (p47phox-/-) mice, Tβ4 7 days concomitantly to infection (FIG. 2E, 2F)”, the “HIF-1α protein in lung” value is recorded as “restored”. Besides, where the note is “both types of mice (C57BL/6 and p47phox-/-), 5 mg/kg i.p. (FIG. 4A)”, the “fungal growth in the lung” value is “reduced”. Also, under setting [1], the “pathogenic Th2/Th17/Th9 cell responses” value is recorded as “down-regulated” and the “protective Th1/Treg cell responses” value is “promoted”. For the setting “infected mice (FIG. 4D)”, the “NLRP3 expression in lung” value is given as “down-regulated”. Under setting [2], the IFNy production entry is given as “reduced”, the IL-1β production result is “reduced”, the IL-17A production entry is reported as “reduced” and the TNF-α production entry is “reduced”. For the same substance, the “expression of genes of angiogenic signaling (Angpt2, Tie2, Vegfa), remodeling (Fgf2), hormonal regulation (Epo), cell migration (Cxcr4)” value (lungs of Aspergillus-infected mice (FIG. 3C)) was “upregulated”. For the setting “p47phox-/- mice after Tβ4 administration (FIG. 4C)”, the “gross lung pathology and histological examination” value was “No signs of inflammatory lung injury and granuloma formation”. For the same substance, the HIF-1α-dependent glycolytic genes result (p47phox-/- mice, 5 mg/kg Tβ4 (FIG. 8A)) is reported as “not increased”. Besides, the Irg1 expression entry (p47phox-/- mice, 5 mg/kg Tβ4 (FIG. 8B)) was “increased”. The “LC3-II expression in lung” value (p47phox-/- mice, 5 mg/kg i.p. 7 consecutive days starting a week after infection (FIG. 1F)) was “restored”. Also, where the note is “p47phox-/- mice, 5 mg/kg i.p. 7 consecutive days starting a week after infection (FIG. 1G)”, the “DAPK1 expression in lung” value is on record as “restored”.

The record behind these values is US20220241378A1, “COMPOSITIONS AND METHODS FOR TREATMENT OF CHRONIC GRANULOMATOUS DISEASE” (priority 2019, published 2022).
